Tests used:
[1] = molecular target: T1, 5-hydroxytryptamine receptor 7 (Homo sapiens, UniProt P34969); test: Displacement of [3H]-8-OH-DPAT from human 5-HT7 receptor expressed in CHOK1 cells after 30 mins by liquid scintillation counting analysis; assay type: cell-based, CHO-K1
[2] = molecular target: T2, 5-hydroxytryptamine receptor 1A (Homo sapiens, UniProt P08908); test: Displacement of [3H]-5-HT from human 5-HT1A receptor expressed in CHOK1 cells after 30 mins by liquid scintillation counting analysis; assay type: cell-based, CHO-K1
T2 sequence (P08908 whole entry): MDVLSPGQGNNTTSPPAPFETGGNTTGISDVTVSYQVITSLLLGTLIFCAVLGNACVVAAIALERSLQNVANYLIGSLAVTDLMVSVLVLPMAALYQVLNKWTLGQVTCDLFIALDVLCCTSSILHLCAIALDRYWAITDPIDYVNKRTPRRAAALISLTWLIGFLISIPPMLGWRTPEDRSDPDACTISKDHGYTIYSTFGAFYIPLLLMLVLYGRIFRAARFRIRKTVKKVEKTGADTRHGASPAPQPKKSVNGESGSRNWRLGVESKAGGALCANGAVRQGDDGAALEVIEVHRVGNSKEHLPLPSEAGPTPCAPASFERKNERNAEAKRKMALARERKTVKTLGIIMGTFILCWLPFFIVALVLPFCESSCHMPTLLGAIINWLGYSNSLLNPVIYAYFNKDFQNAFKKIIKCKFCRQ

[3] = molecular target: T1, 5-hydroxytryptamine receptor 7; test: Displacement of [3H]-8-OH-DPAT from human 5-HT7 receptor expressed in CHOK1 cells at 10^-5 M after 30 mins by liquid scintillation counting analysis; assay type: cell-based; settings: CHO-K1
[4] = species: Homo sapiens; test: Selectivity ratio of Ki for human 5-HT1A receptor to Ki for human 5-HT7 receptor
[5] = species: Homo sapiens; test: Selectivity ratio of Ki for human 5-HT7 receptor to Ki for human 5-HT1A receptor
[6] = molecular target: 5-hydroxytryptamine receptor 1B (Homo sapiens) (UniProt P28222); test: Antagonist activity at human […] receptor expressed in HEK293 cells assessed as inhibition of 5-CT-induced cAMP production at 1 uM after 30 mins by TR-FRET assay; assay type: functional, cell-based
[7] = molecular target: T3, 5-hydroxytryptamine receptor 1A (Rattus norvegicus, UniProt P19327); test: Binding affinity to rat hippocampus 5-HT1A receptor
T3 sequence (P19327 whole entry): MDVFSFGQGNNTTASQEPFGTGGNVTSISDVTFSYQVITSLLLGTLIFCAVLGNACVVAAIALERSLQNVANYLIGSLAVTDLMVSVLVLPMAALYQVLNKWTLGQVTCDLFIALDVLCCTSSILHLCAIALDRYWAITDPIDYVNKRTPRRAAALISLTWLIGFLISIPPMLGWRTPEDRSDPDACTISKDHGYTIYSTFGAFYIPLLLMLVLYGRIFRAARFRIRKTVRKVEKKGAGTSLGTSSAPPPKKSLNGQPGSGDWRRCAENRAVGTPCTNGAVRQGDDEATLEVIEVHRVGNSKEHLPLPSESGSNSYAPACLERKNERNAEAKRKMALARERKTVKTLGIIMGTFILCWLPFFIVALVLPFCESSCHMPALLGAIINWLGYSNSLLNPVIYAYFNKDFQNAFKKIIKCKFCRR

Chain of 5-hydroxytryptamine receptor 1B (Homo sapiens) (P28222 whole entry): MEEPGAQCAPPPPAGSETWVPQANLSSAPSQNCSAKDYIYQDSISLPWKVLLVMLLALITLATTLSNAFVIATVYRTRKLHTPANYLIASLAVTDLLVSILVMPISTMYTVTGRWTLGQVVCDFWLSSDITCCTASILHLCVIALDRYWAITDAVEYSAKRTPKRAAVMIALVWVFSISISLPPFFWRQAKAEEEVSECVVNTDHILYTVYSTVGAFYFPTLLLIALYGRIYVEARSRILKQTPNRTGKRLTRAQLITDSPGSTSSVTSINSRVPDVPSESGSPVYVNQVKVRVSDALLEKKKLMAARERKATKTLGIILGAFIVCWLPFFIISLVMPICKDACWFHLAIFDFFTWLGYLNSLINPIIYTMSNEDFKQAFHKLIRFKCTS
T1 sequence (P34969 whole entry): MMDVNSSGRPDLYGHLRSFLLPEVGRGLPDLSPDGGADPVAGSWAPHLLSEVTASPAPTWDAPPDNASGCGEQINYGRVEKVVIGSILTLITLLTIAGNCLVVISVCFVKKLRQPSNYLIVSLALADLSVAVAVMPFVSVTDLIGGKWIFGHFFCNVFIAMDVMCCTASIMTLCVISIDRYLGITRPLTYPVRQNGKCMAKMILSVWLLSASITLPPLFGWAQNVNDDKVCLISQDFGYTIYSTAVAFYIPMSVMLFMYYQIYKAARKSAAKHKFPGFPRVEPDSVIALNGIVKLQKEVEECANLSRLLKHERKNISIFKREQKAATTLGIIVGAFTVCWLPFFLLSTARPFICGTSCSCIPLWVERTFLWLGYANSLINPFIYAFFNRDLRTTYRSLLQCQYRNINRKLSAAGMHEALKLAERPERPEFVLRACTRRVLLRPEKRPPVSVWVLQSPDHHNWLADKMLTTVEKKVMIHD

Compound	Ki [1]	Ki [2]	further results
O=c1[nH]c(CCCCCN2CCN(c3ccc(Cl)cc3)CC2)nc2ccccc12	101 nM	116 nM	
NC(=O)c1ccccc1NC(=O)CCCCN1CCN(c2cccc(Cl)c2)CC1	168 nM	39.6 nM	
Cc1sc2nc(CCCCN3CCN(Cc4ccccc4)CC3)[nH]c(=O)c2c1C			inhibition [3]: < 50%
Cc1sc2nc(CCCCCN3CCC(Cc4ccccc4)CC3)[nH]c(=O)c2c1C	185 nM	148 nM	
O=c1[nH]c(CCCCN2CCN(c3ccc(Cl)cc3)CC2)nc2ccccc12	1140 nM	75.3 nM	
Cc1sc2nc(CCCCN3CCC(Cc4ccccc4)CC3)[nH]c(=O)c2c1C			inhibition [3]: < 50%
O=c1[nH]c(CCCCCN2CCN(c3cccc(Cl)c3)CC2)nc2ccccc12	11.9 nM	7.33 nM	
CCOc1ccccc1N1CCN(CCCCCn2cnc3ccccc3c2=O)CC1	6.88 nM	1.04 nM	inhibition [6]: 42%
O=c1[nH]c(CCCCN2CCN(c3ccccc3)CC2)nc2ccccc12	145 nM	36.6 nM	
O=c1[nH]c(CCCCN2CCN(c3cccc(Cl)c3)CC2)nc2ccccc12	21.2 nM	2.96 nM	
O=c1[nH]c(CCCCCN2CCN(c3ccccc3)CC2)nc2ccccc12	228 nM	43.5 nM	
Cc1sc2nc(CCCCCN3CCN(c4ccc(Cl)cc4)CC3)[nH]c(=O)c2c1C	1460 nM	53.9 nM	
O=c1c2ccccc2ncn1CCCCCN1CCN(Cc2ccccc2)CC1	1080 nM	268 nM	
CC1CCN(CC[C@H]2CCCN2S(=O)(=O)c2cccc(O)c2)CC1			inhibition [6]: 90%

Continued, in another order:

Ki [1]	Ki [2]	Compound	further results
213 nM	26.4 nM	Cc1sc2ncn(CCCCCN3CCN(c4ccc(Cl)cc4)CC3)c(=O)c2c1C	
68.4 nM	114 nM	Cc1sc2nc(CCCCCN3CCN(c4cccc(Cl)c4)CC3)[nH]c(=O)c2c1C	Ratio Ki [4]: 2
35.8 nM	6.28 nM	O=c1c2ccccc2ncn1CCCCCN1CCN(c2cccc(Cl)c2)CC1	
147 nM	363 nM	Cc1sc2nc(CCCCCN3CCN(Cc4ccccc4)CC3)[nH]c(=O)c2c1C	
143 nM	16.1 nM	Cc1sc2ncn(CCCCCN3CCN(c4ccccc4)CC3)c(=O)c2c1C	
30.1 nM	15.2 nM	Cc1sc2nc(CCCCCN3CCN(c4ccccc4)CC3)[nH]c(=O)c2c1C	
357 nM	37.4 nM	Cc1sc2nc(CCCCN3CCN(c4ccccc4)CC3)[nH]c(=O)c2c1C	Ratio Ki [5]: 10
2.99 nM	1.03 nM	CCOc1ccccc1N1CCN(CCCCCn2cnc3sc(C)c(C)c3c2=O)CC1	inhibition [6]: 38%
12.9 nM	51.5 nM	O=c1c2ccccc2ncn1CCCCCN1CCN(c2ccc(Cl)cc2)CC1	
88.5 nM	3.23 nM	Cc1sc2ncn(CCCCCN3CCN(c4cccc(Cl)c4)CC3)c(=O)c2c1C	Ratio Ki [5]: 27
1650 nM	211 nM	Cc1sc2ncn(CCCCCN3CCN(Cc4ccccc4)CC3)c(=O)c2c1C	
307 nM	28.9 nM	O=c1c2ccccc2ncn1CCCCCN1CCN(c2ccccc2)CC1	
502 nM	5.3 nM	O=c1c2ccccc2ncn1CCCCN1CCN(c2cccc(Cl)c2)CC1	Ki [7]: 50 nM

Reference: ChEMBL document CHEMBL3400047, “Synthesis and binding properties of new long-chain 4-substituted piperazine derivatives as 5-HT₁A and 5-HT₇ receptor ligands” (Bioorg Med Chem Lett, 2015)
